Data from US7718390B2, “Toxoplasma gondii cylclic GMP dependent protein kinase G as a chemotherapeutic target for antiprotozoal agents” (priority 1999, dated 2010).
Where two headings read alike, the source gives them in different places.

Key:
E. tenella PKG = E. tenella PKG (Eimeria tenella, UniProt Q8MMZ8); test: biochemical; assay type: biochemical; conditions: for IC50: read-out: IC50, inhibition of PKG catalytic activity
Experimental: The enzyme inhibition assay involves adding PKG or an extract containing PKG to mixtures of enzyme substrates (one of which is radiolableled) and the test compound, each of which are present in known concentrations. The amount of the enzyme is chosen such that less than 20% of the radiolabeled substrate (usually [^32P]- or [^33P]-ATP,) is consumed during the assay. The assay is carried out with the test compound at a series of different dilution levels. After a period of incubation, the labeled portion of the ATP substrate becomes covalently attached by enzymatic action to the peptide or protein substrate. This reaction product is separated from unincorporated precursor and counted.
E. tenella PKG purified fraction (obtained as described in Example 3) (0.05 μl) is incubated for 2 hours at room temperature in 20 μl of an incubation mixture containing: 25 mM HEPES, pH 7.4, 10 mM MgCl2, 5 mM beta-mercaptoethanol, 20 mM beta-glycerophosphate (or 100 μM sodium orthovanadate), 10 μM cGMP, 2 μM ATP, 10 nM [^33P] ATP (2000 Ci/mmole), 400 μM Kemptide (or 2 mM Kemptide or 0.43 mg/ml myelin basic protein). The reaction is then quenched with 2.5 μl of 0.25 M phosphoric acid per 20 μl assay volume, and the mixture is spotted on Whatman P81 chromatography paper. The chromatography paper is allowed to dry for 2 minutes, washed 5 times for 3 min. each with 150 mls of 75 mM phosphoric acid, then washed briefly with 95% ethanol. After air drying, labeled kemptide remaining on the filter is quantitated by liquid scintillation counting.
E. tenella PKG purified fraction as described above (0.05 μl) was incubated for 2 hours at room temperature in 20 μl of an incubation mixture containing: 25 mM HEPES, pH 7.4, 10 mM MgCl2, 5 mM beta-mercaptoethanol, 20 mM beta-glycerophosphate (or 100 μM sodium orthovanadate), 10 μM cGMP, 2 μM ATP, 10 nM [^33P] ATP (2000 Ci/mmole), 400 μM Kemptide (or 2 mM Kemptide or 0.43 mg/ml myelin basic protein). […] After air drying, labeled kemptide remaining on the filter was quantitated by liquid scintillation counting.

[1] = test system: E. tenella PKG (120 kDa protein); test: Competitive binding assay using [3H] Inhibitor Compound; design: species or system Eimeria tenella; conditions: purified native PKG fraction
Experimental: PKG is incubated with appropriately diluted [^3H] Inhibitor Compound for 60 minutes on ice and free ligand is separated from bound ligand by elution through 0.8 ml G-25 gel filtration columns (purchased from AGTC). The void volume, containing ligand-bound protein, is collected and radioactivity assessed by liquid scintillation counting. For competitive binding studies, excess or appropriately diluted cold competitor(s) are added simultaneously with, or 0.01-5 minutes before, the addition of radiolabeled compound. The concentration of the test compound required to inhibit 50% (IC50) of the binding of the labeled inhibitor to the parasite drug binding protein(s) is calculated.
For the competitive binding assay PKG may be the S100 fraction, crude preparation containing PKG activity, or recombinant PKG. Generally, the PKG preparation contains 20-50 μg of protein.
The S100 fraction was dialyzed against 2 L of Buffer A (30 mM sodium phosphate, pH 7.4, 1 mM DTT, 1 mM EDTA, 20% glycerol, 10 mM sodium fluoride, 0.1 mM sodium orthovanadate) overnight at room temperature. The dialysate was centrifuged at 100,000×g for 1 hour and the pellet discarded. […]
(d) cGMP agarose affinity chromatography. […] Fractions were analyzed for [^3H]-Inhibitor Compound binding, PKG activity and by silver staining following polyacrylamide gel electrophoresis. […]

Sequence of E. tenella PKG (Q8MMZ8 2-1003): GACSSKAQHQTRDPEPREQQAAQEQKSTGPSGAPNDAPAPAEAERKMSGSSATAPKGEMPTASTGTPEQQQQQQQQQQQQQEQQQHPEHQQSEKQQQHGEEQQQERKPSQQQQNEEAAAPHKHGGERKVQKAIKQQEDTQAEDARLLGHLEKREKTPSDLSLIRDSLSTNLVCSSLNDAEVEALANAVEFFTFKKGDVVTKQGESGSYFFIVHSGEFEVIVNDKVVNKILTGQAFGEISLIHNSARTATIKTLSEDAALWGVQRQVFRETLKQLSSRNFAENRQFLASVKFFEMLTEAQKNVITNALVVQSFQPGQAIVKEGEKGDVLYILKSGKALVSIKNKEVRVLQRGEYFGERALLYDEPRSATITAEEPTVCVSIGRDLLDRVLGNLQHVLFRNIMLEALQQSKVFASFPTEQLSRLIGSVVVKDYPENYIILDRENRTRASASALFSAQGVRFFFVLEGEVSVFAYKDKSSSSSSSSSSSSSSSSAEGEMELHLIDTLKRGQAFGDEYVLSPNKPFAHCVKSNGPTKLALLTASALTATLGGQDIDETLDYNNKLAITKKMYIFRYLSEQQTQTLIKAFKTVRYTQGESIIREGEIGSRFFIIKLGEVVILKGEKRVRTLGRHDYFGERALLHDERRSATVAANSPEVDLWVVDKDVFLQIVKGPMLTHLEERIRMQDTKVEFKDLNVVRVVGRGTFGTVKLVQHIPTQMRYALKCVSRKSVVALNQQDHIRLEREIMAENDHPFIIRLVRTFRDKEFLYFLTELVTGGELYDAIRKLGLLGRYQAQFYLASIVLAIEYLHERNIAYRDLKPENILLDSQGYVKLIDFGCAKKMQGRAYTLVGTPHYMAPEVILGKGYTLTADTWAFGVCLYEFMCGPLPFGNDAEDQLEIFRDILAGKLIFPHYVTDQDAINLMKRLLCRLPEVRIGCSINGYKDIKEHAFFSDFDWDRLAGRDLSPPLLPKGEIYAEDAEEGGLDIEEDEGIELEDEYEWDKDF

| Structure (SMILES) | stimulation of kinase activity by cyclic nucleotide cofactor (E. tenella PKG; biochemically purified native E. tenella protein, compared with absence of cyclic nucleotide cofactors) | IC50 (E. tenella PKG; native E. tenella PKG) | IC50 (E. tenella PKG; recombinant expressed E. tenella PKG (Et.PKG7, Sf9 cells)) | binding to the 120 kDa E. tenella protein (PKG) [1] |
| --- | --- | --- | --- | --- |
| Nc1nc2c(ncn2[C@@H]2O[C@@H]3COP(=O)(O)O[C@H]3[C@H]2O)c(=O)[nH]1 [cGMP] | greater than 400 fold |  |  |  |
| CN1CCC(c2cc(-c3ccncc3)c(-c3ccc(F)cc3)[nH]2)CC1 [Inhibitor Compound, 2-(4-fluorophenyl)-5-(N-methylpiperidin-4-yl)-3-(4-pyridyl)pyrrole] |  | < 5 nM | < 5 nM | specifically binds |
